Legend:
[1] = refractive index (Na D-line) (dimensionless); settings: 101.33 kPa, Liquid, Standard Abbe refractometry
[2] = Liquid; for speed of sound: Sing-around technique in a fixed-path interferometer; for mass density: Vibrating tube method
[3] = refractive index (Na D-line) (dimensionless); xn = mol fraction of the nth substance listed; settings: 101 kPa, Liquid, Standard Abbe refractometry
[4] = xn = mol fraction of the nth substance listed; settings: 101 kPa, Liquid; for speed of sound: Frequency=3 MHz, Sing-around technique in a fixed-path interferometer; for mass density: Vibrating tube method

CCCC(=O)O [butanoic acid]
[1]
Settings	refractive index
293.15 K	1.39826
298.15 K	1.3963
303.15 K	1.39421
308.15 K	1.39217
313.15 K	1.3901

[2], 101.33 kPa
Settings	mass density [kg/m3]	speed of sound [m/s]
293.15 K	957.78	1195.5
298.15 K	952.81	1176.9
303.15 K	947.94	1158.2
308.15 K	942.92	1139.7
313.15 K	938.05	1121.3

CCCC(=O)O [butanoic acid] + CCCCC(=O)O
x1 = 1
Settings	mass density, [4] [kg/m3]	refractive index, [3]	speed of sound, [4] [m/s]
293.15 K	957.78	1.39826	1195.5
298.15 K	952.81	1.3963	1176.9
303.15 K	947.94	1.39421	1158.2
308.15 K	942.92	1.39217	1139.7
313.15 K	938.05	1.3901	1121.3

CCOC(=O)OCC [diethyl carbonate]
Settings	refractive index
[1], 298.15 K	1.38249

Settings	speed of sound [m/s]
[2], 298.15 K, 101 kPa, Frequency=3 MHz	1176.6

Settings	mass density [kg/m3]
[2], 298.15 K, 101 kPa	969.32

CCOC(=O)OCC [diethyl carbonate] + CCO
298.15 K
Settings	mass density, [4] [kg/m3]	refractive index, [3]	speed of sound, [4] [m/s]
x1 = 0.0415	800.3	1.36136	1145.2
x1 = 0.0943	817.71	1.36347	1147.3
x1 = 0.1932	845.85	1.36698	1150.9
x1 = 0.2929	869.58	1.36981	1154
x1 = 0.3938	889.96	1.37241	1156.9
x1 = 0.4965	907.82	1.3746	1159.8
x1 = 0.597	922.99	1.37647	1162.8
x1 = 0.6924	935.73	1.37805	1166
x1 = 0.7911	947.58	1.37957	1169.7
x1 = 0.899	959.27	1.38109	1173.7
x1 = 0.9413	963.58	1.38167	1175
x1 = 1	969.32	1.38249	1176.6

CCO [ethanol]
Settings	refractive index
[1], 298.15 K	1.35945

Settings	speed of sound [m/s]
[2], 298.15 K, 101 kPa, Frequency=3 MHz	1142.8

Settings	mass density [kg/m3]
[2], 298.15 K, 101 kPa	785.24

CCO [ethanol] + CCOC(=O)OCC
298.15 K, x2 = 0
Settings	mass density [kg/m3]	refractive index	speed of sound [m/s]
[3]	–	1.35945	–
[4]	785.24	–	1142.8

CCCCCCC(=O)O [heptanoic acid]
[1]
Settings	refractive index
293.15 K	1.42336
298.15 K	1.42138
303.15 K	1.41935
308.15 K	1.41733
313.15 K	1.4153

[2], 101.33 kPa
Settings	mass density [kg/m3]	speed of sound [m/s]
293.15 K	917.65	1295.4
298.15 K	913.47	1277.7
303.15 K	909.29	1259.9
308.15 K	905.11	1242.2
313.15 K	900.94	1224.7

CCCCC(=O)O [pentanoic acid]
[1]
Settings	refractive index
293.15 K	1.4084
298.15 K	1.40641
303.15 K	1.40438
308.15 K	1.40234
313.15 K	1.4003

[2], 101.33 kPa
Settings	mass density [kg/m3]	speed of sound [m/s]
293.15 K	939.41	1234
298.15 K	934.85	1216
303.15 K	930.29	1197.9
308.15 K	925.73	1179.9
313.15 K	921.16	1162.1

CCCCC(=O)O [pentanoic acid] + CCCCCCC(=O)O
x2 = 0
Settings	mass density, [4] [kg/m3]	refractive index, [3]	speed of sound, [4] [m/s]
293.15 K	939.41	1.4084	1234
298.15 K	934.85	1.40641	1216
303.15 K	930.29	1.40438	1197.9
308.15 K	925.73	1.40234	1179.9
313.15 K	921.16	1.4003	1162.1

Reference: the NIST ThermoML archive (doi:10.1016/j.tca.2014.06.031)
